From ChEMBL document CHEMBL5214965, “Synthesis and antidepressant activity of novel 1-(1-benzoylpiperidin-4-yl) methanamine derivatives selectively targeting SSRI/5-HT1A” (Bioorg Med Chem Lett, 2022)
Activity calls are given as the source filed them. No cut-off for these calls is given here.

How the values were obtained:
[1] = biological target: T1, 5-hydroxytryptamine receptor 1A (Homo sapiens) (UniProt P08908); assay: Displacement of [3H][…] from 5-HT1A receptor in human HEK293 cells at 1 uM measured after 60 mins by scintillation counting method relative to control; format: cell-based
T1 sequence (whole entry): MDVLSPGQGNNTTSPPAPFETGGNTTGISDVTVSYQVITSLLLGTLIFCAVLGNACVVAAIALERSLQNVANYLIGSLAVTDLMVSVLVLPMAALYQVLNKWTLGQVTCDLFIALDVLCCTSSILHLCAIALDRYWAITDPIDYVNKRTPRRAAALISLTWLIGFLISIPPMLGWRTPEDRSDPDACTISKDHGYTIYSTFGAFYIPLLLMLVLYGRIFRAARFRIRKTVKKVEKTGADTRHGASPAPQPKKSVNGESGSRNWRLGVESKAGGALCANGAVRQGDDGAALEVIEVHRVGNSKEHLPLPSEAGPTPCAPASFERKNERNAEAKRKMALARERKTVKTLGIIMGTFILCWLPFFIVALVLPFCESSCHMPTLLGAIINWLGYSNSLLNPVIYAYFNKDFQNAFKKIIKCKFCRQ

[2] = biological target: Sodium-dependent serotonin transporter (Rattus norvegicus) (UniProt P31652); assay: Inhibition of serotonin transporter in rat brain tissue assessed as inhibition of [3H]-5-hydroxytryptamine reuptake at 1 uM relative to control; format: tissue-based
in vitro [3] = settings: human, liver microsomes
Description: Metabolic stability in human liver microsomes assessed as clearance

in vitro [4] = settings: human, liver microsomes; remark: listed apart in the source
in vitro [5] = settings: mouse, liver microsomes
Description: Metabolic stability in mouse liver microsomes assessed as half life

in vitro [6] = settings: mouse, liver microsomes; remark: listed apart in the source
Description: Metabolic stability in mouse liver microsomes assessed as clearance

[7] = biological target: T2, 5-hydroxytryptamine receptor 1A (Homo sapiens, UniProt P08908); assay: Displacement of [3H][…] from 5-HT1A receptor in human HEK293 cells measured after 60 mins by scintillation counting method; format: cell-based
T2 sequence (P08908 whole entry): T1 sequence (whole entry)

[8] = Binding affinity to 5-HT6 receptor (unknown origin) assessed as inhibition constant; set-up: species or system Homo sapiens
Mus musculus [9] = assay: Antidepressant activity in ICR mouse assessed as reduction in immobility time at 0.6 mg/kg, po for 7 days by tail suspension test; format: functional; set-up: scale not given: the % may be the effect or the level left; settings: time 7 day
[10] = biological target: T3, 5-hydroxytryptamine receptor 2C (Homo sapiens) (UniProt P28335); assay: Inhibition of 5-HT2C receptor (unknown origin); settings: concentration not given here
T3 sequence (whole entry): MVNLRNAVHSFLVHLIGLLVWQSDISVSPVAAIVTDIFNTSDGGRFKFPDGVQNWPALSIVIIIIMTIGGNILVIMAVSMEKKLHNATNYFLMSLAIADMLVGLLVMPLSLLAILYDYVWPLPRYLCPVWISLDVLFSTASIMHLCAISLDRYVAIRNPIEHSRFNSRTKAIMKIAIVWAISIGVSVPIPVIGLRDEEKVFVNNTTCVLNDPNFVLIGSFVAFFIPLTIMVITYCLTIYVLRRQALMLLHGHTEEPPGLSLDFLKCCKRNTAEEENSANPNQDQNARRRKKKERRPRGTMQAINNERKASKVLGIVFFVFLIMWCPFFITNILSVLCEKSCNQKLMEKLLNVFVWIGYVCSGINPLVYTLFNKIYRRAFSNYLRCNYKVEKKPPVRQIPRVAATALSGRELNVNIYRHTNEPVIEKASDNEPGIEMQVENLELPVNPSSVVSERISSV

[11] = biological target: 5-hydroxytryptamine receptor 1B (Homo sapiens) (UniProt P28222); assay: Inhibition of 5-HT1B receptor (unknown origin); settings: concentration not given here
Homo sapiens [12] = species on record: Homo sapiens; assay: Inhibition of 5-HT6 receptor (unknown origin); settings: concentration not given here
Mus musculus [13] = assay: Antidepressant activity in ICR mouse assessed as reduction in immobility time at 0.6 mg/kg, po for 7 days by forced swimming test; format: functional; set-up: scale not given: the % may be the effect or the level left; settings: time 7 day
[14] = Binding affinity to 5-HT7 receptor (unknown origin) assessed as inhibition constant; set-up: species or system Homo sapiens
[15] = biological target: Serotonin 3 (5-HT3) receptor (Homo sapiens) (UniProt P46098+A5X5Y0+O95264+Q70Z44+Q8WXA8); assay: Inhibition of 5-HT3 receptor (unknown origin); format: protein-complex assay; settings: concentration not given here
[16] = biological target: 5-hydroxytryptamine receptor 1D (Homo sapiens) (UniProt P28221); assay: Inhibition of 5-HT1D receptor (unknown origin); settings: concentration not given here
Mus musculus [17] = assay: Antidepressant activity in ICR mouse assessed as reduction in immobility time at 10 mg/kg, po for 7 days by tail suspension test; format: functional; set-up: scale not given: the % may be the effect or the level left; settings: time 7 day
[18] = biological target: Sodium-dependent serotonin transporter (Rattus norvegicus, UniProt P31652); assay: Inhibition of serotonin transporter in rat brain tissue assessed as inhibition of [3H]-5-hydroxytryptamine reuptake; format: tissue-based
Homo sapiens [19] = species on record: Homo sapiens; assay: Inhibition of 5-HT7 receptor (unknown origin); settings: concentration not given here
Mus musculus [20] = assay: Antidepressant activity in ICR mouse assessed as reduction in immobility time at 0.6 to 80 mg/kg, po for 7 days by forced swimming test; format: functional, organism-based; settings: dose 0.6-80 mg/kg, time 7.0 day
[21] = biological target: 5-hydroxytryptamine receptor 2A (Homo sapiens) (UniProt P28223); assay: Inhibition of 5-HT2A receptor (unknown origin); settings: concentration not given here
Sequence of 5-hydroxytryptamine receptor 2A (Homo sapiens) (P28223 whole entry): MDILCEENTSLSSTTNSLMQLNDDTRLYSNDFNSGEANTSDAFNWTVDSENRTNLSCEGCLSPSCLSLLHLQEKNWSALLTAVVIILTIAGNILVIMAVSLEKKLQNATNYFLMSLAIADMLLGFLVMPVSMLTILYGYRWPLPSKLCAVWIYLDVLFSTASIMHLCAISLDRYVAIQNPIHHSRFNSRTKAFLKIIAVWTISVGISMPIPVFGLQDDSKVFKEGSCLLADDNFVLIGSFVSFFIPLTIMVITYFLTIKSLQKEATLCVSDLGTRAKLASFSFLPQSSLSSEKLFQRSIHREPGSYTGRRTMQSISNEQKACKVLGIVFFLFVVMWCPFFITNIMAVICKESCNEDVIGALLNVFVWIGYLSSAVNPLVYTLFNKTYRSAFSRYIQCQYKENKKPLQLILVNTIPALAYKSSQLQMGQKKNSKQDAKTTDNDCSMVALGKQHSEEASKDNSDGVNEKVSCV

Sequence of Sodium-dependent serotonin transporter (P31652 whole entry): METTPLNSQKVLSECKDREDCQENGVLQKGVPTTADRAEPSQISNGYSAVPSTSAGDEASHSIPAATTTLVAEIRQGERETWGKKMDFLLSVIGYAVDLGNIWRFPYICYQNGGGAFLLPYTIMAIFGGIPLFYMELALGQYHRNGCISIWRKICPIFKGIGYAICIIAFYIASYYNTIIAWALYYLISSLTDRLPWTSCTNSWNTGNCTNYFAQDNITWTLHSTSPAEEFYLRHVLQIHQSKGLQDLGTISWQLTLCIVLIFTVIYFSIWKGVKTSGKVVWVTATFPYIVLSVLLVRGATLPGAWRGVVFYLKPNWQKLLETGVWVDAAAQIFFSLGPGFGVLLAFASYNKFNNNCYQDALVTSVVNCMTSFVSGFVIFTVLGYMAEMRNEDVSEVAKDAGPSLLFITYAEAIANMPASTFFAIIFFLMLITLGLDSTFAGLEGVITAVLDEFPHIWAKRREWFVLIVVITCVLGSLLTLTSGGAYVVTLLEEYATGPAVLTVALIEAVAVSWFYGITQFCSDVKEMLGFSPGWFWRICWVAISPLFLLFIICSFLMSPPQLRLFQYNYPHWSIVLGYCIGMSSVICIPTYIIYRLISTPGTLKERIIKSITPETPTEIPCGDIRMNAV
Sequence of Sodium-dependent serotonin transporter (Rattus norvegicus) (P31652 whole entry): as above
Sequence of 5-hydroxytryptamine receptor 1B (Homo sapiens) (P28222 whole entry): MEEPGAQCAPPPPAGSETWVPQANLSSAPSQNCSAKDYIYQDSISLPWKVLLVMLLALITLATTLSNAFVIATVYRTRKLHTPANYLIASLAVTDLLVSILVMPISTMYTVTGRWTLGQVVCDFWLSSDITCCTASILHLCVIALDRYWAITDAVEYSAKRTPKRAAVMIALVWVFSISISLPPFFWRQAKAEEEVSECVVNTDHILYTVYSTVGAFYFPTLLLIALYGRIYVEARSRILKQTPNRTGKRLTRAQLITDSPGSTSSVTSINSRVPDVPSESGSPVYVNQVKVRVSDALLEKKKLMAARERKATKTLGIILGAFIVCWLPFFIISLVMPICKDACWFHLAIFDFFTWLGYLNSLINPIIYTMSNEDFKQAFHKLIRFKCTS
Sequence of 5-hydroxytryptamine receptor 1D (Homo sapiens) (P28221 whole entry): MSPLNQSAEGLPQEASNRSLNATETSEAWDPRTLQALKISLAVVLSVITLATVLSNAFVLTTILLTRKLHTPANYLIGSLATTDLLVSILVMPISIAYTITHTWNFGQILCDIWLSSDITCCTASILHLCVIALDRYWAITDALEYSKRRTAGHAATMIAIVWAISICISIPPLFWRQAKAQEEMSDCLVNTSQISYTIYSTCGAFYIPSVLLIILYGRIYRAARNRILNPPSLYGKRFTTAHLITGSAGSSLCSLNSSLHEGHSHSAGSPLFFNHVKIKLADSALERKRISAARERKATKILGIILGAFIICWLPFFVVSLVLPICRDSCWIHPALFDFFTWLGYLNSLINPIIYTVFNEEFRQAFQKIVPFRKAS

| Compound | inhibition [1] | inhibition [2] | microsomal CLint (in vitro [3]) | half-life (in vitro [4]) | half-life (in vitro [5]) | microsomal CLint (in vitro [6]) | other results |
| --- | --- | --- | --- | --- | --- | --- | --- |
| NC(=O)c1ccccc1C(=O)N1CCC(CNCCCc2c[nH]c3ccc(F)cc23)CC1 | 98% | 102% | 138 µL/min/mg | 10 min | 13.2 min | 105 µL/min/mg |  |
| NC(=O)c1ccc(C(=O)N2CCC(CNCCCc3c[nH]c4ccc(F)cc34)CC2)cc1 | 98% | 100% | 4.2 µL/min/mg | 330 min | 102 min | 13.6 µL/min/mg |  |
| O=C(c1ccc(F)c(Cl)c1)N1CCC(CNCc2cccc(-n3cccn3)n2)CC1 |  |  |  |  |  |  | Ki [7]: 1.54 nM |
| Cc1ccc(C(=O)N2CCC(CNCCCc3c[nH]c4ccc(F)cc34)CC2)cc1 | 99% | 99% | 310 µL/min/mg | 4.48 min |  |  |  |
| O=C(c1ccc(F)cc1)N1CCC(CNCCCc2c[nH]c3ccc(F)cc23)CC1 | 100% | 101% | 84.3 µL/min/mg | 16.4 min |  |  |  |
| NC(=O)c1cccc(C(=O)N2CCC(CNCCCc3c[nH]c4ccc(F)cc34)CC2)c1 | 98% | 102% | 9 µL/min/mg | 154 min | 277 min | 5 µL/min/mg |  |
| N#Cc1ccc2[nH]cc(CCCCN3CCN(c4ccc5oc(C(N)=O)cc5c4)CC3)c2c1 [VILAZODONE] |  |  | 51.6 µL/min/mg | 26.9 min | 23.1 min | 60.6 µL/min/mg |  |
| O=C(c1ccc(Cl)cc1)N1CCC(CNCCCc2c[nH]c3ccc(F)cc23)CC1 | 100% | 103% | 70.9 µL/min/mg | 19.5 min |  |  |  |
| O=C(c1cccc(Cl)c1)N1CCC(CNCCCc2c[nH]c3ccc(F)cc23)CC1 | 101% | 103% | 153 µL/min/mg | 9.07 min | 27.8 min | 49.8 µL/min/mg |  |
| Fc1ccc(OCCN2CCC(c3c[nH]c4ccc(F)cc34)CC2)c(-c2ccccc2)c1 |  |  |  |  |  |  | IC50 [18]: 0.5 nM; Ki ([7]; read-out: Ki): 0.2 nM |
| Fc1ccc(N2CCN(CCCc3c[nH]c4ccc(F)cc34)CC2)c(-c2ccccc2)c1 |  |  |  |  |  |  | IC50 [18]: 177 nM; Ki ([7]; read-out: Ki): 12 nM |

More lines, main results first:

| inhibition [1] | inhibition [2] | microsomal CLint (in vitro [3]) | half-life (in vitro [4]) | half-life (in vitro [5]) | microsomal CLint (in vitro [6]) | Compound | other results |
| --- | --- | --- | --- | --- | --- | --- | --- |
| 96% | 102% |  |  |  |  | O=C(c1ccc(F)c(Cl)c1)N1CCC(NCCCc2c[nH]c3ccc(F)cc23)CC1 |  |
| 92% | 101% |  |  |  |  | O=C(c1ccc(F)c(Cl)c1)N1CCC(CNCCCCCc2c[nH]c3ccc(F)cc23)CC1 |  |
| 94% | 102% |  |  |  |  | CN(CCCc1c[nH]c2ccc(F)cc12)CC1CCN(C(=O)c2ccc(F)c(Cl)c2)CC1 |  |
| 99% | 101% | 51.8 µL/min/mg | 26.8 min | 61.6 min | 22.5 µL/min/mg | O=C(c1ccc(F)c(Cl)c1)N1CCC(CNCCCc2c[nH]c3ccc(F)cc23)CC1 | Ki [8]: 150 nM; Activity (Mus musculus [9]): 19%; inhibition [10]: < 75%; inhibition [11]: < 75%; inhibition (Homo sapiens [12]): 82%; Activity (Mus musculus [13]): 34%; Ki [14]: 36 nM; inhibition [15]: < 75%; inhibition [16]: < 75%; Activity (Mus musculus [17]): 24%; IC50 [18]: 8.2 nM; inhibition (Homo sapiens [19]): 86.5%; Ki ([7]; read-out: Ki): 0.069 nM; Activity (Mus musculus [20]): Active; inhibition [21]: < 75% |
| 93% | 101% |  |  |  |  | O=C(c1ccc(F)c(Cl)c1)N1CCC(CNCCc2c[nH]c3ccc(F)cc23)CC1 |  |
| 99% | 103% | 118 µL/min/mg | 11.7 min | 45 min | 30.8 µL/min/mg | O=C(c1ccc(F)c(Cl)c1)N1CCC(CNCCCCc2c[nH]c3ccc(F)cc23)CC1 |  |
| 100% | 101% | 45.4 µL/min/mg | 30.5 min | 30.8 min | 44.9 µL/min/mg | O=C(c1ccc(Cl)c(Cl)c1)N1CCC(CNCCCc2c[nH]c3ccc(F)cc23)CC1 | IC50 [18]: 17 nM; Ki ([7]; read-out: Ki): 0.097 nM |
| 99% | 103% | 71.2 µL/min/mg | 19.5 min |  |  | O=C(c1ccc(F)c(F)c1)N1CCC(CNCCCc2c[nH]c3ccc(F)cc23)CC1 |  |
| 100% | 103% | 113 µL/min/mg | 12.2 min |  |  | N#Cc1ccc2[nH]cc(CCCNCC3CCN(C(=O)c4ccc(F)c(Cl)c4)CC3)c2c1 |  |
| 86% | 101% |  |  |  |  | CCCN(CCCc1c[nH]c2ccc(F)cc12)CC1CCN(C(=O)c2ccc(F)c(Cl)c2)CC1 |  |
| 100% | 103% | 559 µL/min/mg | 3.86 min |  |  | Cc1cc(C(=O)N2CCC(CNCCCc3c[nH]c4ccc(F)cc34)CC2)ccc1F |  |
